Patent US7323485B2, “4-(substituted cycloalkylmethyl) imidazole-2-thiones, 4-(substituted cycloalkenylmethyl) imidazole-2-thiones, 4-(substituted cycloalkylmethyl) imidazol-2-ones and 4-(substituted cycloalkenylmethyl) imidazol-2-ones and related compounds” (Allergan, Inc., priority 2002, dated 2008)

Tests used:
[1] = biological target: T1, alpha2B adrenergic receptors (Homo sapiens, UniProt P18089); experiment: Receptor Selection and Amplification Technology (RSAT) assay, alpha2B; assay type: cell-based; conditions: for EC50: NA = not active at concentrations less than 10 micromolar, read-out: Alpha 2B EC50; for Alpha 2B intrinsic activity: fraction of maximal effect of standard full agonist brimonidine (UK14304)
T1 construct: expressed in transfected cells; host or cells: NIH-3T3
T1 sequence (P18089 1-450): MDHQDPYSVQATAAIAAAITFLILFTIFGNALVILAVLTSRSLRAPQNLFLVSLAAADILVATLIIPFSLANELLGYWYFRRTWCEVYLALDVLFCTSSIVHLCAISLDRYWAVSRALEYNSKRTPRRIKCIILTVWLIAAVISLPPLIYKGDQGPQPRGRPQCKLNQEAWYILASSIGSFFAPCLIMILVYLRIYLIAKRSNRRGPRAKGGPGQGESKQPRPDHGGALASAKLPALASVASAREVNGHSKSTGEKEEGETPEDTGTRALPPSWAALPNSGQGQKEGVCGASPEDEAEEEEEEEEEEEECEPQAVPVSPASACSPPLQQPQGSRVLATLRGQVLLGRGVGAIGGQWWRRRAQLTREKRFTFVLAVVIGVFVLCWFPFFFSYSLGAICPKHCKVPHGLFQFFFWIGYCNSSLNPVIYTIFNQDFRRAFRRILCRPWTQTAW
Excerpt: (§1) The imidazole-2-thione compounds of the invention are agonists of alpha2 adrenergic receptors, particularly they tend to be specific or selective agonists of alpha2B and/or to a lesser extent alpha2C adrenergic receptors, in preference over alpha2A adrenergic receptors. […] Al., 1995, Pharmacol. Toxicol. 76, pp. 308-311 (incorporated herein by reference) and is also described below. Another reference pertinent to this assay is Conklin et al. (1993) Nature 363:274-6, also incorporated herein by reference.
(§2) Receptor Selection and Amplification Technology (RSAT) Assay
(§3) The RSAT assay measures a receptor-mediated loss of contact inhibition that results in selective proliferation of receptor-containing cells in a mixed population of confluent cells. The increase in cell number is assessed with an appropriate transfected marker gene such as β-galactosidase, the activity of which can be easily measured in a 96-well format. Receptors that activate the G protein, Gq, elicit this response. Alpha2 receptors, which normally couple to Gi, activate the RSAT response when coexpressed with a hybrid Gq protein that has a Gi receptor recognition domain, called Gq/i5.
(§4) NIH-3T3 cells are plated at a density of 2×10^6 cells in 15 cm dishes and maintained in Dulbecco's modified Eagle's medium supplemented with 10% calf serum. One day later, cells are cotransfected by calcium phosphate precipitation with mammalian expression plasmids encoding p-SV-β-galactosidase (5-10 μg), receptor (1-2 μg) and G protein (1-2 μg). 40 μg salmon sperm DNA may also be included in the transfection mixture. Fresh media is added on the following day and 1-2 days later, cells are harvested and frozen in 50 assay aliquots. Cells are thawed and 100 μl added to 100 μl aliquots of various concentrations of drugs in triplicate in 96-well dishes. Incubations continue 72-96 hr at 37 EC. After washing with phosphate-buffered saline, β-galactosidase enzyme activity is determined by adding 200 μl of the chromogenic substrate (consisting of 3.5 mM o-nitrophenyl-β-D-galactopyranoside and 0.5% nonidet P-40 in phosphate buffered saline), incubating overnight at 30 EC and measuring optical density at 420 nm. The absorbance is a measure of enzyme activity, which depends on cell number and reflects a receptor-mediated cell proliferation. The EC50 and maximal effect of each drug at each alpha2 receptor is determined. The efficacy or intrinsic activity is calculated as a ratio of the maximal effect of the drug to the maximal effect of a standard full agonist for each receptor subtype. Brimonidine, also called UK14304, the chemical structure of which is shown below, is used as the standard agonist for the alpha2A, alpha2B and alpha2C receptors.
(§5) The results of the RSAT assay with several exemplary compounds of the invention are disclosed in Table 1 above together with the chemical formulas of these examplary compounds. […] NA stands for “not active” at concentrations less than 10 micromolar. As is known EC50 is the concentration at which half of a given compound's maximal activity is observed.

[2] = biological target: T2, alpha2C adrenergic receptors (Homo sapiens, UniProt P18825); experiment: Receptor Selection and Amplification Technology (RSAT) assay, alpha2C; assay type: cell-based; conditions: for EC50: NA = not active at concentrations less than 10 micromolar, read-out: Alpha 2C EC50; for Alpha 2C intrinsic activity: fraction of maximal effect of standard full agonist brimonidine (UK14304)
T2 construct: expressed in transfected cells; host or cells: NIH-3T3
T2 sequence (P18825 1-462): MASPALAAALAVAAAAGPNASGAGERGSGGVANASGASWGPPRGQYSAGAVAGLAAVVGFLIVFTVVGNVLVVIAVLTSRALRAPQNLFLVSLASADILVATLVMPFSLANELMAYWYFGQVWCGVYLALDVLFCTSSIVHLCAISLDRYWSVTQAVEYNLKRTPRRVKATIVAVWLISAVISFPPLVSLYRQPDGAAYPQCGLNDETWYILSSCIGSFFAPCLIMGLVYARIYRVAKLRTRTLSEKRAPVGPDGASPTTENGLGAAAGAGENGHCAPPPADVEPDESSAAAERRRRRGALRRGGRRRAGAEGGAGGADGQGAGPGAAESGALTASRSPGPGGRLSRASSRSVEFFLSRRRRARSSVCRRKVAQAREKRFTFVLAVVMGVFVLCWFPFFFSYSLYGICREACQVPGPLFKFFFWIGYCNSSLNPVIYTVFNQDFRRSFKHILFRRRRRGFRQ
Excerpt: as §1, §2, §3, §4, §5

Row | SMILES | EC50 [1] [nM] | Alpha 2B intrinsic activity [1] | EC50 [2] [nM] | Alpha 2C intrinsic activity [2]
1 | CC1=CC(Cc2c[nH]c(=S)[nH]2)CC1 (centres unmarked) | 81 | 0.81 | – | –
2 | S=c1[nH]cc(CC2CCC3=C(CCCC3)C2)[nH]1 (centres unmarked) | 86 | 0.78 | – | –
3 | O=C1c2ccsc2CCC1Cc1c[nH]c(=S)[nH]1 (centres unmarked) | 106 | 0.97 | – | –
4 | O=C1C2=C(CCCC2)CCC1Cc1c[nH]c(=S)[nH]1 (centres unmarked) | 815 | 0.83 | – | –
5 | O=C1c2ccccc2CCC1Cc1c[nH]c(=S)[nH]1 (centres unmarked) | 18 | 1.0 | – | –
6 | S=c1[nH]cc(CC2CCc3cc(Cl)ccc32)[nH]1 (centres unmarked) | 1150 | 0.37 | – | –
7 | CCC1=C(C)CCC(Cc2c[nH]c(=S)[nH]2)C1 (centres unmarked) | 6 | 1.08 | – | –
8 | S=c1[nH]cc(CC2CCc3ccccc3C2)[nH]1 (centres unmarked) | 17 | 0.65 | – | –
9 | O=C1c2ccccc2CC1Cc1c[nH]c(=S)[nH]1 (centres unmarked) | 850 | 0.71 | – | –
10 | CC1=C(C)CC(Cc2c[nH]c(=S)[nH]2)CC1 (centres unmarked) | 25 | 0.61 | – | –
11 | O=C1c2ccc(O)cc2CCC1Cc1c[nH]c(=S)[nH]1 (centres unmarked) | 1010 | 0.48 | – | –
12 | CCC1=CCC(Cc2c[nH]c(=S)[nH]2)CC1 (centres unmarked) | 451 | 0.68 | – | –
13 | C#CC1=CCC(Cc2c[nH]c(=S)[nH]2)CC1 (centres unmarked) | 265 | 0.60 | – | –
14 | CC1=CCC(Cc2c[nH]c(=S)[nH]2)CC1 (centres unmarked) | 61 | 0.72 | – | –
15 | O=C1c2ccccc2CC[C@H]1Cc1c[nH]c(=S)[nH]1 | 41 | 0.83 | – | –
16 | O=C1c2ccccc2CC[C@@H]1Cc1c[nH]c(=S)[nH]1 | 92 | 0.79 | – | –
17 | S=c1[nH]cc(C2CCc3ccccc3CC2)[nH]1 | 17 | 0.82 | – | –
18 | S=c1[nH]cc(CC2CCSc3ccccc32)[nH]1 (centres unmarked) | 286 | 1.16 | – | –
19 | O=C1C2=C(CCC1Cc1c[nH]c(=S)[nH]1)NCCC2 (centres unmarked) | 755 | 0.98 | 2260 | 0.88
20 | O=C1c2cccnc2CCC1Cc1c[nH]c(=S)[nH]1 (centres unmarked) | 720 | 0.6 | – | –
21 | S=c1[nH]cc(C[C@H]2CCc3ccccc3C2)[nH]1 | 395 | 0.41 | – | –
22 | S=c1[nH]cc(C[C@@H]2CCc3ccccc3C2)[nH]1 | 13.7 | 0.93 | – | –
23 | S=c1[nH]cc(C[C@@H]2CCC3=C(CCCC3)C2)[nH]1 | 60 | 0.73 | – | –
24 | O=C1c2ccc(F)cc2CCC1Cc1c[nH]c(=S)[nH]1 (centres unmarked) | 300 | 0.76 | – | –
25 | O=C1c2c(Cl)cccc2CCC1Cc1c[nH]c(=S)[nH]1 (centres unmarked) | 115 | 0.99 | – | –
26 | S=c1[nH]cc(CC2Cc3ccccc3C2)[nH]1 | 110 | 0.65 | – | –
27 | S=c1[nH]cc(C2Cc3ccccc3C2)[nH]1 | 6 | 0.98 | – | –
28 | S=c1[nH]cc(C2CCc3ccccc3C2)[nH]1 (centres unmarked) | 34 | 1.03 | 423 | 0.52

Row | SMILES | EC50 [1] [nM] | Alpha 2B intrinsic activity [1] | EC50 [2] [nM] | Alpha 2C intrinsic activity [2]
29 | Fc1ccc2c(c1)CC(c1c[nH]c(=S)[nH]1)C2 (centres unmarked) | 30 | 0.75 | – | –
30 | Cc1cccc2c1CC(c1c[nH]c(=S)[nH]1)C2 (centres unmarked) | 3 | 0.99 | 13 | 0.62
31 | Cc1ccc2c(c1)CC(c1c[nH]c(=S)[nH]1)C2 (centres unmarked) | 27 | 1.12 | 374 | 0.45
32 | S=c1[nH]cc(C2Cc3ccc(Br)cc3C2)[nH]1 (centres unmarked) | 28 | 0.87 | 321 | 0.38
33 | S=c1[nH]cc(C2Cc3cccc(Br)c3C2)[nH]1 (centres unmarked) | 5 | 1.07 | 106 | 0.87
34 | S=c1[nH]cc(C2Cc3ccc(Cl)cc3C2)[nH]1 (centres unmarked) | 57.5 | 0.85 | – | –
35 | C[C@@H]1c2ccccc2C[C@H]1c1c[nH]c(=S)[nH]1 | 5 | 1.03 | – | –
36 | Fc1cccc2c1CCC2Cc1c[nH]c(=S)[nH]1 (centres unmarked) | 34.5 | 0.93 | – | –
37 | Fc1ccc2c(c1F)CCC2Cc1c[nH]c(=S)[nH]1 (centres unmarked) | 834 | 0.54 | – | –
38 | Cc1ccc(C)c2c1CCC2Cc1c[nH]c(=S)[nH]1 (centres unmarked) | 105 | 0.64 | – | –
39 | S=c1[nH]cc(CC2CCCc3cccc(Cl)c32)[nH]1 (centres unmarked) | 74 | 0.78 | – | –
40 | S=c1[nH]cc(CC2CCc3ncccc3C2)[nH]1 (centres unmarked) | 1590 | 0.74 | – | –
41 | Fc1cc(F)c2c(c1)CC(c1c[nH]c(=S)[nH]1)C2 (centres unmarked) | 6.5 | 0.81 | – | –
42 | COc1cc(F)c2c(c1)CC(c1c[nH]c(=S)[nH]1)C2 (centres unmarked) | 22 | 1.02 | – | –
43 | S=c1[nH]cc(CC2CCc3c(Cl)cccc32)[nH]1 (centres unmarked) | 31.3 | 0.91 | – | –
44 | N#C/C=C1\c2ccccc2CCC1Cc1c[nH]c(=S)[nH]1 (centres unmarked) | 160 | 0.94 | – | –
45 | N#C/C=C1/c2ccccc2CCC1Cc1c[nH]c(=S)[nH]1 (centres unmarked) | 990 | 0.5 | – | –
46 | CC1=CCC(Cc2c[nH]c(=S)[nH]2)OC1 (centres unmarked) | 469 | 0.87 | – | –
47 | S=c1[nH]cc(CC2CCC=C2c2ccccc2)[nH]1 (centres unmarked) | – | – | 214 | 0.68
48 | Fc1cccc(C2=CCCC2Cc2c[nH]c(=S)[nH]2)c1 (centres unmarked) | – | – | 191 | 0.45
49 | Fc1ccc(C2=CCC[C@H]2Cc2c[nH]c(=S)[nH]2)cc1 | – | – | 715 | 0.61
50 | Fc1cccc(C2=CCC[C@@H]2Cc2c[nH]c(=S)[nH]2)c1 | 1470 | 0.66 | – | –
51 | Fc1cc(F)cc(C2=CCCC2Cc2c[nH]c(=S)[nH]2)c1 (centres unmarked) | – | – | 241 | 0.66
52 | Fc1ccccc1C1=CCCC1Cc1c[nH]c(=S)[nH]1 (centres unmarked) | – | – | 994 | 0.53
53 | Fc1ccc(F)c(C2=CCCC2Cc2c[nH]c(=S)[nH]2)c1 (centres unmarked) | – | – | 430 | 0.38
54 | CC(C)C1=C(c2ccc(F)cc2)C(Cc2c[nH]c(=S)[nH]2)CC1 (centres unmarked) | 269 | 0.79 | – | –
55 | S=c1[nH]cc(CC2CCc3sccc3C2)[nH]1 (centres unmarked) [drawing 22] | 14 | 0.74 | – | –
